The subject of this assay is P388. Description: Cytotoxicity against mouse P388 cells. The class given is functional. Conditions: read-out: ED50 (the source's name).

In brackets after ≈: the same amount, converted by molar mass.

With `O=C1N[C@H]2[C@H](O)[C@H](O)[C@@H](O)C[C@@H]2c2cc3c(c(O)c21)OCO3`, the EC50 was 3.2 ng/mL (≈ 0.0103 µM).
Under `CC(=O)Oc1c2c(cc3c1C(=O)N[C@H]1[C@H](OC(C)=O)[C@H](OC(C)=O)[C@@H](OC(C)=O)C[C@H]31)OCO2` stands 3.2 ng/mL (≈ 0.0067 µM); under `O=C1N[C@H]2[C@H](O)[C@H](O)[C@@H](O)C[C@H]2c2cc3c(c(O)c21)OCO3`, 24 ng/mL (≈ 0.0776 µM).

These data come from ChEMBL document CHEMBL1151141, “Antineoplastic agents, 162. Zephyranthes candida” (1990).
